Source: patent US20040142379A1, “Affinity fishing for ligands and proteins receptors” (Carlsberg Research Laboratory, priority 2003, published 2004)
Entries after “also recorded” stand apart in the source; their conditions may differ. Non-standard residues stand in square brackets, D forms with d. No end group written: not given here. Aze = O=C(O)[C@@H]1CCN1

tested on: Normal Myocytes (basal) protein mixture; assay: Solid phase screening of Library 1 with labeled myocyte proteins; on-bead affinity isolation and peptide mass fingerprinting of bound protein (basal); format: binding, neonatal Wistar rats; conditions: proteins bound to resin-bound Library 1 ligand, primarily present in basal cells; LA low abundance, M transmembrane or partially embedded, MA membrane associated; parentheses = possible complexes
Experimental: Myocytes were prepared from 1 to 5 day old neonatal Wistar rats (University of Copenhagen) according to literature procedure described in Busk et al., 2002, Cardiovasc. Res., 56: 64-75 and plated into eight P10 culture plates at 6 million cells/plate. Cells were grown at 37° C. and 5% CO2 humidity in serum free Modified Eagle Media (MEM). After 2 days, the adherent cells were washed at room temperature with serum free MEM (2×) and fresh MEM was added. To four of the plates, 10 μM phenylephrine (PE) was also added. Cells were grown for two more days and then harvested as described below.
Protein was extracted from myocytes prepared as described above for Example 9, using a new procedure modified from existing protocols, primarily: Arnott, et al., 1998, Anal. Biochem. 258: 1-18. The media was removed from plates and adhered cells were treated for 10 minutes with ice cold phosphate buffer (0.25 mL, 10 mM, pH 7.5, augmented with 0.15 M NaCl 60 mM Benzamidine HCl, 5 mM EDTA, 10 μg/mL E-64, 10 μg/mL Leupeptin, 10 μg/mL Pepstatin A, and 1 mM PMSF). The cells were scraped off the plates and then lysed (on ice) in a sonicator (2×) using 10 seconds off/10 seconds on cycles.
The resulting suspension was augmented with CHAPS, DTT, and urea to a final concentration of CHAPS (1% w/v), DTT (5 mM), and urea (8 M). After 10-15 minutes on ice, the solution was centrifuged for 10 minutes at 15,000 rpm at 4° C. The supernatant was removed and protein content quantified using the NanoOrange Protein test (Molecular Probes, Eugene, Oreg.): Total protein recovered: 70.5 μg for PE-treated cells and 60 μg for basal cells.
Fluorescent dye Oregon Green 514 (OR) (Molecular Probes) was used to label the healthy/basal cells while Rhodamine Red (RR) (Molecular Probes) was used to label the PE-treated cells. The labeling procedures were carried out according to the manufacturer's protocol. The protein solutions (0.25 mL, 50.4 μg for PE cells and 0.25 mL, 42.8 μg for basal cells) were dialyzed against a solution of 10 mM phosphate buffer, 0.15 M NaCl, pH 7.5 and then 1 M NaHCO3 (0.025 mL) added to a final pH of 8.5. 10 μL of dye in dry DMF (10 mg/mL) was added and the sample stirred at room temperature for 2 hours. The protein solution was dialyzed extensively against 10 mM phosphate buffer, 0.15 M NaCl, pH 7.5, to remove excess dye.
Ligand library 1 (200 mg), prepared as described for Example 5, was transferred to a syringe fitted with a stop-valve and the ligand-beads were washed for 10 minutes (3×) with 10 mM phosphate buffer, pH 6.8, supplemented with 0.15 M NaCl, 1 mM Ca^2+, 1 mM Zn^2+, 1 mM Mn^2+, 1 mM Cu^2+, and 1 mM Mg^2+ (3 mL). The ligand-beads were treated with a 1% BSA solution for 30 minutes, then washed with buffer (1×). A mixture of labeled myocyte proteins, including both PE-induced protein (138 μL, 40 μg) and basal protein (167 μL, 40 μg) obtained as described above for Example 11, was prepared in 1.2 mL buffer, and added to the ligand library in the syringe. The proteins and ligand library were incubated at room temperature for 16 hours. The library was then washed with buffer for 5 minutes then with water for 3×5 minutes. The library was examined under a fluorescence microscope and brightly fluorescent red, green, and yellow beads (yellow indicative of both dyes red and green binding; the majority of the beads) were present, as well as unlabelled beads. The fluorescent beads were parted and retained for analysis.
The fluorescent ligand library beads containing bound myocyte protein obtained as described in Example 15, were sorted using a COPAS (250) NF Bead Sorter (Union Biometrica, Somerville, Mass.). Beads emitting fluorescence of only one color contain proteins from one physical state, proteins expressed only in the PE-induced hypertrophic state (red) or proteins expressed only in the basal state (green).

Substance	Identified Protein(s)
Pya-Hyp-Hyp-Phe-Acm-Tyr	Troponin T; Growth hormone receptor (M); Protein kinase (LA)
F[Aze]GHG[Aze]	Hypothetical proteins; Cysteine and tyrosine rich proteins of unknown; also recorded: function (M); (Mitochondrial ATP synthase; Ribosomal proteins (L; also recorded: series);) Serine protease; SPTR
Phe-Ppy-Acc-Ala-Ppy-Hpy	Hypothetical proteins; Troponin T; (Phospholipase C (MA);; also recorded: Phosphatidylcholine sterol acyl transferase)

tested on: E. coli membrane proteins; assay: Solid phase screening of Library 2 with E. coli membrane proteins; on-bead tryptic digest and protein identification; format: binding, Escherichia coli DH 5α-136; conditions: proteins bound to resin-bound Library 2 ligand; LA low abundance, M inner or outer membrane, P periplasmic space
Experimental: A 400 mL culture of Escherichia coli DH 5α-136 (Carlsberg Research Center Collection) was prepared according to the procedures described in Hanahan, 1985, In: DNA Cloning, Vol 1, Glover, D., ed., IRL Press Ltd, pp. 109-135. Cells were grown from innocula in LB media at 37° C. for 5 to 6 hours and harvested in the latter log phase at an optical density of 0.8 (600 nm) by centrifugation (10,000 rpm for 10 minutes at 4° C.). The media containing extracellular protein was retained and the pellet washed once with PBS, pH 7.6 (cellular weight=2.22 g).
Isolation of E. coli membrane proteins was achieved through modification of published literature procedures: Auer, et al., 2001, Biochemistry, 40:6628-6635, and Molloy, et al., 2000, Eur. J. Biochem. 267:2871-2881. After incubation of E. coli cells for 2 days, washed cells were scraped from plates and centrifuged as described above for Example 10. The cell pellet (approximately 1 g) was suspended in 50 mM Tris HCl, pH 7.5 and pressed (2×) in a French Press at 1500 Psi. The resulting suspension was centrifuged at 2500×g for 10 minutes. The ice cold supernatant was diluted with 2.5 ml of ice-cold 0.1 M sodium carbonate buffer 11 and the solution stirred on ice for 1 hour. Ultracentrifugation was then carried out at 115, 000×g for 1 to 1.5 hours at 4° C., yielding Pellet 1 and Supernatant 1. The membrane pellet 1 was resuspended in 50 mM Tris HCl, pH 7.5 and the pellet was recollected after centrifugation for an additional 20 minutes at 115,000×g, yielding Pellet 2 and supernatant 2. Pellet 2 was solubilized in 50 mM Tris HCl, pH 7.5 containing 10 mM imidazole, 0.5 mM PMSF, 20% glycerol, and 1% Dodecyl Maltoside (DDM) or 33 mM Octyl Glucoside (OG) for 30 minutes at 4° C. The suspension was then centrifuged for 10,000 g for 30 minutes. The pellet and supernatant obtained were labeled Pellet 3 and supernatant 3.
Protein content was determined by checking the absorbance of the protein at 280 nm. The protein concentration in the DDM sample was 0.93 mg/mL, while in the OG sample 0.07 mg/mL protein was obtained.
The protein was labeled with amino reactive succinylanthranilate dye (blue) DDM (0.49 mg dye) and OG (0.03 mg dye) according to the same protocol used in the extracellular labeling described above for Example 12. The labeling stopping reaction (hydroxylamine hydrochloride addition) was not used in this case, to avoid dilution of the protein. The mixture was dialyzed overnight against 10 mM PBS buffer, pH 6.8 containing 0.01 mM ZnCl2, 0.01 mM CaCl2, 0.01 mM MnCl2, and 0.01 mM MnSO4, against a three time buffer change.
The ligand library was then washed, and E. coli labeled membrane protein, prepared as described above for Example 13, was added (0.1 ml). The ligand library and protein mixture was incubated overnight at room temperature.
A typical analysis employed 100-300 laser shots.
Beads containing 40 different specific ligands that bind E. coli protein, the binding ligands isolated by the process described for Example 16 and identified as described for Example 19, were placed into 40 wells of a Multiwell filter plate (Multiscreen DV plates, Millipore). Control beads containing PEGA4000 resin plus the spacer and linker with no ligand compound were used. The binding of unlabeled E. coli proteins was carried out in duplicate. The ligand beads were washed with Millipore water for 3×5 minutes and then with 10 mM PBS buffer (as described for Example 15) for 3×5 minutes under vacuum. Unlabeled E. coli protein, produced as described for Example 13, (400 μg) was added to each well and incubated at room temperature overnight. The next day, the unbound protein solution from each well was removed under suction and the beads were washed with Millipore water and buffer respectively for 3×5 minutes under vacuum.
Protein was cleared from beads containing protein-ligand binding “positive hits” isolated as described for Examples 21 (myocyte proteins) and 22 (E. coli proteins). […]

Substance	Identified Protein(s)
T(Sa)-H-W-H-I	Mannose-1-phosphate guanyl transferase, isopropyl malate dehydrogenase (M)
T(Sa)-F-N-H-S	Phosphate acetyl transferase, acid shock protein, molybdopterin converting factor; also recorded: subunit
T(Sa)-H-W-V-V	Pyruvoyl dependent aspartate decarboxylase, colicin E2, Histidine kinase (M)
T(Sa)-F-V-W-H	NADH dehydrogenase (M), protein involved in flagellar biosynthesis and motor; also recorded: switching component (M); also recorded: Lysine-arginine-ornithine-binding protein (P), ATP-binding component of glycine-; also recorded: betaine-proline transport protein (P)
T(Sa)-H-W-H-L	Chorismate mutase, xanthine dehydrogenase, carbamoyl phosphate synthetase
T(Sa)-F-G-I-M	Transposase, transcriptional regulator (LA), GroEL, protein involved in the taurine; also recorded: transport system (M)
T(Sa)-F-G-I-W	Histidine synthetase, aspartate carbamoyl transferase, protein involved in permease; also recorded: transport system (M)
T(Sa)-M-V-N-W	ATP dependent helicase, mob C
T(Sa)-Y-S-M-P	Biotin synthetase, UDP-glucose dehydrogenase, tyrosine protein kinase (LA), fatty; also recorded: acid oxidase complex proteins
T(Sa)-L-S-W-W	NAD-dependent 7-alpha-hydroxysteriod dehydrogenase, homocysteine transferase,; also recorded: nitrate reductase (P), lactate dehydrogenase, citrate synthetase
T(Sa)-H-I-G-Y	Fimbrial subunit, outer membrane pyruvate kinase (LA, M)
T(Sa)-G-V-F-L	50 S ribosomal protein, heme binding lipoprotein (M), regulator for D-glucarate, D- and glycerate and D-galactarate, glutamine tRNA synthetase
T(Sa)-L-Y-I-F	Colicin, hypothetical membrane protein (M) outer membrane lipoprotein (M),; also recorded: arylsulfatase
T(Sa)-F-G-L-M	Hemolysin C, high affinity potassium transport system (M), quinone oxidoreductase; also recorded: (M), ferrodoxin dependent NA(D)PH oxidoreductase (M)
T(Sa)-F-A-L-V	Chaperone DnaK, putative hydrolase, transposase
T(Sa)-L-Y-L-F	Fimbrial protein precursor, alkaline phosphatase (P), cytochrome related proteins (P),
T(Sa)-H-L-G-Y	Protein involved in lipopolysaccharide biosynthesis (M), phosphomannose isomerase
T(Sa)-I-Y-L-F	Membrane bound ATP synthetase (M), ATP hydrolase
T(Sa)-W-V-N-M	Transposase, inner membrane protein for phage attachment (M)

tested on: six protein mixture: Con A, P. sativum lectin, L. culinaris lectin, W. floribunda lectin, Glyceraldehyde 6-phosphate, and bovine serum albumin (BSA); assay: not given; conditions: proteins eluted from ligand on PEGA6000 resin with 0.5 M mannose and/or N-acetylglucosamine
Experimental: The ligand-resin was washed with 10 mM PBS buffer, pH 6.8 containing 1 mM CaCl2 and 1 mM MnCl2. A mixture of unlabelled proteins, Glycerol-3-phosphate: BSA: Wisteria floribunda: Lens culinaris: Pisatum sativum in a […] weight ratio was dissolved in 10 mM PBS buffer, pH 6.8 containing 1 mM CaCl2 and 1 mM MnCl2 The protein mix (3.5 mL, ca. 1.2 mg protein) was applied to each ligand column and allowed to bind overnight. The column was washed with the same buffer until no more protein was eluted (Abs 280 nm). Bound protein was eluted from the column using 0.5M mannose in 10 mM PBS buffer, pH 8.0 containing CaCl2 and 1 mM MnCl2 (buffer filtered to remove CaOH2 formed) for glycopeptides containing only mannose, 0.5 M N-acetylglucosamine in 10 […] mM PBS buffer, pH 8.0 containing CaCl2 and 1 mM MnCl2 (buffer filtered to remove CaOH2 formed) for glycopeptides containing only GlcNAc, and both buffers for glycopeptides containing both mannose and GlcNAc, or for unglycosylated peptides. Samples were obtained in about 700 μL volume and frozen for later protein identification.

Substance	Identified Protein(s)
ManS-GIy-GlcNN-Asn-ManS-Tyr	Con A, P. sativum lectin,; also recorded: L. culinaris lectin
ManN-Phe-Trp-Ser-Lys-His	Con A, P. sativum lectin
ManS-Gly-ManS-Asp-Asn-Ala	Con A, P. sativum lectin
ManN-ManS-ManN-Trp-Ser-Trp	Con A, P. sativum lectin,; also recorded: L. culinaris lectin
GPKKYH	Con A, P. sativum lectin,; also recorded: L. culinaris lectin
GlcNN-Val-GlcNN-His-ManS-Gly	Con A, P. sativum lectin
GlcNN-Trp-Phe-Asp-Trp-Pro	Con A
